Results on one molecule are retold here after ChEMBL document CHEMBL5113525, “Discovery of the Novel 1H-Pyrrolo[2,3-b]pyridine Derivative as a Potent Type II CDK8 Inhibitor against Colorectal Cancer” (J Med Chem, 2022).

Each structure is given as a SMILES string.

By inhibition is commonly meant the drop in the measured response relative to a control, in per cent. High values mean a strong effect, low ones a weak effect. The MRT is a mean duration of stay, worked out from the concentration-time curve. What is called half-life is the time needed for the level to fall by half in the phase considered. Low values mean rapid decline, high ones slow decline. Usually CL/F stands for clearance divided by bioavailability, as obtained after extravascular dosing.

Series [1] deals with Tyrosine-protein kinase JAK3 (Homo sapiens) (UniProt P52333). Description: Inhibition of human JAK3 at 1 uM relative to control.
A short description of series [2]: MRT in Sprague-Dawley rat at 5 mg/kg, iv measured upto 12 hrs by LC-MS/MS analysis. It counts as ADME, organism-based. The conditions noted are these: in vivo.
For series [3], the target named is 3-phosphoinositide-dependent protein kinase 1 (Homo sapiens) (UniProt O15530). Description: Inhibition of human PDK1 at 1 uM relative to control.
The target of series [4] is Dual specificity protein kinase CLK4 (Homo sapiens) (UniProt Q9HAZ1). Description: Inhibition of human CLK4 at 1 uM relative to control.
Series [5] addresses Epidermal growth factor receptor (Homo sapiens) (UniProt P00533). Description: Inhibition of human EGFR at 1 uM relative to control.
The target of series [6] is Dual specificity protein kinase CLK3 (Homo sapiens) (UniProt P49761). Description: Inhibition of human CLK3 at 1 uM relative to control.
Series [7] is described as follows: Half life in Sprague-Dawley rat at 5 mg/kg, iv measured upto 12 hrs by LC-MS/MS analysis. The conditions noted are these: in vivo. It counts as ADME, organism-based.
The nature of series [8]: MRT in Sprague-Dawley rat at 10 mg/kg, po measured upto 12 hrs by LC-MS/MS analysis. It counts as ADME, organism-based. To be noted: in vivo.
Series [9] can be described thus: Half life in Sprague-Dawley rat at 10 mg/kg, po measured upto 12 hrs by LC-MS/MS analysis. It counts as ADME, organism-based. To be noted: in vivo.
Series [10] deals with Phosphatidylinositol 4-phosphate 3-kinase C2 domain-containing subunit alpha (Homo sapiens) (UniProt O00443). Description: Inhibition of human PI3K-C2-alpha at 1 uM relative to control.
For series [11], the target named is Fibroblast growth factor receptor 3 (Homo sapiens) (UniProt P22607). Description: Inhibition of human FGFR3 at 1 uM relative to control.
Series [12] deals with Cyclin-dependent kinase 5/CDK5 activator 1 (Homo sapiens) (UniProt Q00535+Q15078). Nature of the series: Inhibition of human CDK5/p35 at 1 uM relative to control. It counts as protein-complex assay.
Series [13] addresses LIM domain kinase 1 (Homo sapiens) (UniProt P53667). Description: Inhibition of human LIMK1 at 1 uM relative to control.
In series [14] the target is Dual specificity protein kinase CLK2 (Homo sapiens) (UniProt P49760). Description: Inhibition of human CLK2 at 1 uM relative to control.
Series [15] deals with Mitogen-activated protein kinase kinase kinase 9 (Homo sapiens) (UniProt P80192). Description: Inhibition of human MLK1 at 1 uM relative to control.
The target in series [16] is Serine/threonine-protein kinase NLK (Homo sapiens) (UniProt Q9UBE8). Nature of the series: Inhibition of human NLK at 1 uM relative to control.
Series [17] deals with Vascular endothelial growth factor receptor 1 (Homo sapiens) (UniProt P17948). Description: Inhibition of human FLT1 at 1 uM relative to control.
The nature of series [18]: Clearance in Sprague-Dawley rat at 10 mg/kg, po measured upto 12 hrs by LC-MS/MS analysis. It counts as ADME, organism-based. The conditions noted are these: in vivo.

Chain of Vascular endothelial growth factor receptor 1 (Homo sapiens) (P17948 whole entry): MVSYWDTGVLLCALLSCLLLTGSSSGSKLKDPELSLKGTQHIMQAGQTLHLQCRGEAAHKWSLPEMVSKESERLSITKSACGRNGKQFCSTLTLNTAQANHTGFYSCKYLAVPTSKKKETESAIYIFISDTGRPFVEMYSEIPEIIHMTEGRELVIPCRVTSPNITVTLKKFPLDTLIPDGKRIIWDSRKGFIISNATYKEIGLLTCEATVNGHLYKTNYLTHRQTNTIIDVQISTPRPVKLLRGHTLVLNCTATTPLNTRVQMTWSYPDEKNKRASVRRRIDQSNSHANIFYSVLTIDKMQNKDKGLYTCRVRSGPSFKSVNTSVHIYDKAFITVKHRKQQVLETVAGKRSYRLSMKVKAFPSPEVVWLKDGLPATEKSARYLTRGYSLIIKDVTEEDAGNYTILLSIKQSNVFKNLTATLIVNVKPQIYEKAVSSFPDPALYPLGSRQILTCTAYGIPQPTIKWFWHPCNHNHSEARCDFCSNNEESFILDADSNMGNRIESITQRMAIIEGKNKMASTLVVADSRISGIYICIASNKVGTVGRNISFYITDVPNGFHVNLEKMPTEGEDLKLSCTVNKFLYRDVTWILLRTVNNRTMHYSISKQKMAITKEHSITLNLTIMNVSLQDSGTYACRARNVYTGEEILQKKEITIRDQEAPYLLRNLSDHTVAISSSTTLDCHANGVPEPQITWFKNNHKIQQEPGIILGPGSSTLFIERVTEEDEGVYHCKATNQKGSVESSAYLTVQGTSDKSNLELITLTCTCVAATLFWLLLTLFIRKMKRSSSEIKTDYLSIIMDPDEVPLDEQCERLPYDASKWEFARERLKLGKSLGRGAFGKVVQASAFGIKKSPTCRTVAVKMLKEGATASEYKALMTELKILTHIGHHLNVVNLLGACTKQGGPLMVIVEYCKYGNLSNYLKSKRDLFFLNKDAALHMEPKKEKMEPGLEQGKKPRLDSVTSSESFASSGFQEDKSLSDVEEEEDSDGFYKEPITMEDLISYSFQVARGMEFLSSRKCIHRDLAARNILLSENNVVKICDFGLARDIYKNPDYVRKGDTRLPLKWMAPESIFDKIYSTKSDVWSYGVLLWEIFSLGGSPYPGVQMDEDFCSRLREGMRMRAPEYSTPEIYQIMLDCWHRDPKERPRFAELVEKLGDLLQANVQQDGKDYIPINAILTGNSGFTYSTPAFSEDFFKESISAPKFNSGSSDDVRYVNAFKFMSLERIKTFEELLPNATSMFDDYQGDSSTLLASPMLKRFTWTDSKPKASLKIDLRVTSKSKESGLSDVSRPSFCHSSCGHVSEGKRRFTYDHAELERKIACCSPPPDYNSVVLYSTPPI
Chain of Fibroblast growth factor receptor 3 (Homo sapiens) (P22607 23-806 limits assumed): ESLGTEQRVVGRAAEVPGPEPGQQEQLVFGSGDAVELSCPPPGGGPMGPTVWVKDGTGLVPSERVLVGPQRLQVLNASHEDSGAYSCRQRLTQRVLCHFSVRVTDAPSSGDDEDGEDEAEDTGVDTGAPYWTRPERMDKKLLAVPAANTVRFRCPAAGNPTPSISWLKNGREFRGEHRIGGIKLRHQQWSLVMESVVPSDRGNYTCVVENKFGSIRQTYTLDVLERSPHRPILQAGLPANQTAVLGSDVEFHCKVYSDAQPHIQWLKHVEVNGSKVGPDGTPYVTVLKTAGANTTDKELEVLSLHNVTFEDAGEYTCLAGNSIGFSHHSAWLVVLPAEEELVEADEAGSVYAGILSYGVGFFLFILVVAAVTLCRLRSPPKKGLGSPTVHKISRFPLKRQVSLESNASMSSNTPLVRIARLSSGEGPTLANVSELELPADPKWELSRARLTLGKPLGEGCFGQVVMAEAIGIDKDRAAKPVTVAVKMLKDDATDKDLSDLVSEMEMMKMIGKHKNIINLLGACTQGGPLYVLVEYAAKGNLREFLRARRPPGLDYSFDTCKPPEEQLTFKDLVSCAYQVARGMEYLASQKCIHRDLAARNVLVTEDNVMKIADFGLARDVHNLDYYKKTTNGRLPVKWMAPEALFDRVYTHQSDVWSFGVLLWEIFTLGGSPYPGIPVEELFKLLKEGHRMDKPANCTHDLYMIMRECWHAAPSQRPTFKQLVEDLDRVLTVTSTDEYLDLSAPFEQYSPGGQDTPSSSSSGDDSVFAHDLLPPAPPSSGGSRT
Chain of LIM domain kinase 1 (Homo sapiens) (P53667 whole entry, looked up, the tested form may be a part): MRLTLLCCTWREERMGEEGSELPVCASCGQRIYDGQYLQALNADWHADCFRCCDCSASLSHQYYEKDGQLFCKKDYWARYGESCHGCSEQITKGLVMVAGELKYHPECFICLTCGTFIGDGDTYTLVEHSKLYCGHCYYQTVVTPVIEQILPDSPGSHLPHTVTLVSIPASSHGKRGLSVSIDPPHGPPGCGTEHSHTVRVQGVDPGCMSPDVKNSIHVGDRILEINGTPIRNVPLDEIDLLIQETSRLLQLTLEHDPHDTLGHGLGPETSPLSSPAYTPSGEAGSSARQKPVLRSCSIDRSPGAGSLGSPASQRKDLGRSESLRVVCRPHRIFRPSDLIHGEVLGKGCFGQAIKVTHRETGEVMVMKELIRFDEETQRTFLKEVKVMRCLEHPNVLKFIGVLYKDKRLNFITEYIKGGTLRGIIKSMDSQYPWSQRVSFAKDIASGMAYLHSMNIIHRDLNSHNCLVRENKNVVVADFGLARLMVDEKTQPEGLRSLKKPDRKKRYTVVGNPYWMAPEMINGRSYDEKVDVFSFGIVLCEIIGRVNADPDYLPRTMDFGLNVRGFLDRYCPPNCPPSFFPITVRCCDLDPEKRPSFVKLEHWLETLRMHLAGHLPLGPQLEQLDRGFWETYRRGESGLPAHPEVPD
Chain of Dual specificity protein kinase CLK3 (Homo sapiens) (P49761 whole entry, looked up): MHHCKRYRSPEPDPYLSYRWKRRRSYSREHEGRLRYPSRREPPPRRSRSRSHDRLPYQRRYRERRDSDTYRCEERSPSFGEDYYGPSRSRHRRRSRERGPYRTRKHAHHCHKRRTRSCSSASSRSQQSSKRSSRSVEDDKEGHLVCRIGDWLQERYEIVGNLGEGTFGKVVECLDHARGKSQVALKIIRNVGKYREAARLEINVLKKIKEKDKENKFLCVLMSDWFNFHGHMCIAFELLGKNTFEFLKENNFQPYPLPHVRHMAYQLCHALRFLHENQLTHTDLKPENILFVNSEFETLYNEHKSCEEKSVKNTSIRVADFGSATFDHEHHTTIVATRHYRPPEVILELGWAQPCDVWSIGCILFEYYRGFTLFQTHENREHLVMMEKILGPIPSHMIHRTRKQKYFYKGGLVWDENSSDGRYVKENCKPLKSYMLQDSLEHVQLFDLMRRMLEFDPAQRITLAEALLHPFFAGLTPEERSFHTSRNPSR
Chain of Mitogen-activated protein kinase kinase kinase 9 (Homo sapiens) (P80192 whole entry, looked up): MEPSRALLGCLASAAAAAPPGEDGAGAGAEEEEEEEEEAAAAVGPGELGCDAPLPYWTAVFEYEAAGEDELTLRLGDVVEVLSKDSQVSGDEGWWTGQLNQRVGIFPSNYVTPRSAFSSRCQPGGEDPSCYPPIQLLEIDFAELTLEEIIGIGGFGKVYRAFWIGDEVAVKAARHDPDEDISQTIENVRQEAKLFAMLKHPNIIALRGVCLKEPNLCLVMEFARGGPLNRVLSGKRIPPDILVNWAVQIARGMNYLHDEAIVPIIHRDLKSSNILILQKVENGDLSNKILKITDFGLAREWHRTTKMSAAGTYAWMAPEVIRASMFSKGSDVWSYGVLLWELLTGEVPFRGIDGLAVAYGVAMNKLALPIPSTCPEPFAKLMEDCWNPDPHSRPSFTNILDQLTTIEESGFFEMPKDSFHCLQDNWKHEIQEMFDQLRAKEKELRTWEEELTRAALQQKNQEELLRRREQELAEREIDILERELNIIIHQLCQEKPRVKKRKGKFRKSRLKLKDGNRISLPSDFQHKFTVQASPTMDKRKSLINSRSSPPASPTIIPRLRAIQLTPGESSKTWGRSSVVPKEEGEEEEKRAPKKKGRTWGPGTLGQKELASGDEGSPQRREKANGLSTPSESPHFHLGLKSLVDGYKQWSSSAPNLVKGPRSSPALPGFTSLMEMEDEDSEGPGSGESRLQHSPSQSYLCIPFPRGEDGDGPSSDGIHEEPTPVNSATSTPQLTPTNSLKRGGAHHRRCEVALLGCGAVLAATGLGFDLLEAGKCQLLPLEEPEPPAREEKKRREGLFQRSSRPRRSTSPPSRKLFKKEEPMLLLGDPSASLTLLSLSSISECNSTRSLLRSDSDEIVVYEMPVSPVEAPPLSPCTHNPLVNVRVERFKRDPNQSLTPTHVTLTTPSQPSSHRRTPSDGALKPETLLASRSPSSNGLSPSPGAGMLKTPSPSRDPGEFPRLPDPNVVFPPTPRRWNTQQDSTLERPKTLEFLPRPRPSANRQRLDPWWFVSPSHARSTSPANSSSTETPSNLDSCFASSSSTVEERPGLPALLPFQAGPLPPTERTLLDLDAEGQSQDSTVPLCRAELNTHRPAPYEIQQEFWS
Chain of Cyclin-dependent kinase 5/CDK5 activator 1 (Homo sapiens) (Q00535 whole entry, the tested form may be a part): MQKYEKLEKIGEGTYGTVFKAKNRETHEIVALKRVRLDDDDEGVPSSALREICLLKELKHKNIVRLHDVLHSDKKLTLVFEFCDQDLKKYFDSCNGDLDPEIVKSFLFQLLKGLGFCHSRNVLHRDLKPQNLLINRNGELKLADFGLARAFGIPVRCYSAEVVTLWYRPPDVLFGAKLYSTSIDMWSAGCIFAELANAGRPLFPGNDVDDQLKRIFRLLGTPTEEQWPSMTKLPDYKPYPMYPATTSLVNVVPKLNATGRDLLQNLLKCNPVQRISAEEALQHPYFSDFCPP
Chain of Cyclin-dependent kinase 5/CDK5 activator 1 (Homo sapiens) (Q15078 99-307 partner limits assumed): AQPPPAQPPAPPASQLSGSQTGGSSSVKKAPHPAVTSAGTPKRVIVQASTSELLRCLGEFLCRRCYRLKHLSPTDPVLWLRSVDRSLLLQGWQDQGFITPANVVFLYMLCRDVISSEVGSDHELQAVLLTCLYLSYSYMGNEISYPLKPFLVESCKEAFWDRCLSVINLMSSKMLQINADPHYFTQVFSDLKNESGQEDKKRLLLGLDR

Consider `Cc1ccc(NC(=O)CCc2cccc(-c3cnc4[nH]ccc4c3)c2)cc1C(F)(F)F`, for which the inhibition in series [1] was 10%; in series [3], 0%; in [4], 6%; in [5] it was 0%; in [6] it was 2%; in series [10] it was 1%. The inhibition came to 0% in [11]; 0% in [12]; 6% in [13]; 9% in [14]; 7% in series [15]; 0% in series [16]. The molecule also yielded an inhibition in [17] of 1%. Moreover, the MRT in [2] turned out to be 1.76 h; in [8], 2.02 h. Further, the values for the half-life in [7] and in [9] were 1.63 h and 1.21 h, respectively. The same molecule gave a CL/F in series [18] of 154 mL/min/kg.
